From patent US9371292B2, “Quinazoline derivative, preparation method therefor, intermediate, composition and application thereof” (SHANGHAI PHARMACEUTICALS HOLDINGS CO., LTD., priority 2011, dated 2016) come the findings set out here.

Molecules are shown by their SMILES.

The subject of assay [1] is NCI-H1975 L858R T790M cell. The assay can be described thus: Proliferation inhibition, H1975 cells (CellTiter-Glo). The class given is cell-based. The settings on record: Homo sapiens, 48 hours. The protocol: (§1) This example is to determine the proliferation inhibitory activity against wide type of high expression cell lines A431 of EGFR and mutant cell lines NCI-H1975^L858RT790M, the proliferation inhibitory activity in cell-based level of compound is expressed by IC50. The test method is as follows: both cell lines are purchased from American type culture collection (ATCC). The cells are seeded in a white and opaque 384-well culture plate with a proper concentration (A431: 20000 cells/ml medium; H1975: 15000 cells/ml medium), cultured at 37° C. with 5% CO2 for 24 hrs, a series of medicine with gradient concentration is added, generally 10 concentrations, cultured for another 48 hours under the previous conditions. The assays of the proliferation inhibitory activity against the A431 and H1975 cell of the test compounds are performed by the CellTiter-Glo Luminescent Cell Viability Assay and calculate the proliferation inhibitory activity of compound with different concentrations. CellTiter-Glo Luminescent Cell Viability Assay is purchased from Promega. Fit the data of proliferation inhibitory activity against A431 and H1975 of compounds with different concentrations with 4-parameter equation.
For orientation: Cellular ATP, detected with luciferase, serves as a proxy for viable cell number.

Assay [2] deals with T1, EGFR tyrosine kinase (Homo sapiens, UniProt P00533).
T1 construct: purchased Sigma Aldrich
T1 sequence (P00533 25-1210): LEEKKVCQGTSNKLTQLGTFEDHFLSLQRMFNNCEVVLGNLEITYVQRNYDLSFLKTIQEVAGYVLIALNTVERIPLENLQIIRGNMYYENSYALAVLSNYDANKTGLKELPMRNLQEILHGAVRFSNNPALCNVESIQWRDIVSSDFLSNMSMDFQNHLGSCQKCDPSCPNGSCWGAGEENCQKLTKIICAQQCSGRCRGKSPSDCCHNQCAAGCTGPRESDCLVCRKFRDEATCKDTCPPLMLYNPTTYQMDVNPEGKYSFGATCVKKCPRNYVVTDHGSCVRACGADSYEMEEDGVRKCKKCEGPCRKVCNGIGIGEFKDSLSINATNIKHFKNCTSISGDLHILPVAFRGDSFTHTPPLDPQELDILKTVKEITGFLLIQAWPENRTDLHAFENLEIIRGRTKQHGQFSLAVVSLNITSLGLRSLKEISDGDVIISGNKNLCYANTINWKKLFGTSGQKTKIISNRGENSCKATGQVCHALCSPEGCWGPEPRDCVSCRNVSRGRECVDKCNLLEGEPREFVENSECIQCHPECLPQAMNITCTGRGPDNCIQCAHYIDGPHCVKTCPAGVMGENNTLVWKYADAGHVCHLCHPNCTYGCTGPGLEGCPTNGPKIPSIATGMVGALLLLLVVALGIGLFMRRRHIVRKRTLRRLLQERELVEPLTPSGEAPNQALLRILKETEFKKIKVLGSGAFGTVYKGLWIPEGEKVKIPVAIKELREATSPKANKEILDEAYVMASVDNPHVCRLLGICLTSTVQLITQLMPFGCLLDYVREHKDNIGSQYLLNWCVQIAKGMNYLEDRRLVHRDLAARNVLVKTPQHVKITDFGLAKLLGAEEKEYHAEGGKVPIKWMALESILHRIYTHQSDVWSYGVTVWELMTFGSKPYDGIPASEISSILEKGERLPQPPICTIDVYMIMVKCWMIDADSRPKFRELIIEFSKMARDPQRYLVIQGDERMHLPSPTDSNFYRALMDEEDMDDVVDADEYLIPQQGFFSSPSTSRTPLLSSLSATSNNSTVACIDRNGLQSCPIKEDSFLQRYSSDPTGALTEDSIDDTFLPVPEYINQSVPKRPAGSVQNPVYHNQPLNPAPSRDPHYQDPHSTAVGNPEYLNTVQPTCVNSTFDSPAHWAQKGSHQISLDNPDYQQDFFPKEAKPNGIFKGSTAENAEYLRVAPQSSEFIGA
The assay can be described thus: HTRF assay, inhibition of EGFR tyrosine kinase. The class given is biochemical. To be noted: HTRF method. As to the method: The activity of inhibitory against the kinase of the test compound is expressed by IC50. The assays are performed by Homogeneous time-resolved fluorescence (HTRF) method which is as follows: a series of synthesized analogues with gradient concentration are incubated for 5 minutes in enzymatic solution with specific concentration (for EGFR) at room temperature. Then proper amount of substrate and ATP are added into the reaction mixture to start the enzyme reaction. The assays of the specific concentration of compound is measured by Flexstation III of Molecular device company after the stop buffer and detecting liquid are added to the enzyme reaction system and hatch at room temperature for 1 hour. And the activity of inhibitory against the kinase of the test compound with different concentration will be calculated, then according to the 4-parameter equation, fit the inhibitory activity of the test compound with different concentration to get the IC50. EGFR is purchased from Sigma Aldrich. The HTRF KinEASE-TK is purchased from Cisbio Bioassays. ATP is purchased from Sigma Aldrich.
A general note: Time-resolved FRET reads energy transfer from a long-lived donor to a nearby acceptor.

For assay [3], the system named is A431 cell. Nature of the assay: Proliferation inhibition, A431 cells (CellTiter-Glo). The class given is cell-based. To be noted: Homo sapiens, A-431, 48 hours. As to the method: as §1

For `C=C(F)C(=O)Nc1cc2c(Nc3cc(OC)c(Cl)cc3Cl)ncnc2cc1OCCCN1CCOCC1` [Compound 27, N-[4-(2,4-dichloro-5-methoxy-phenylamino)-7-(3-morpholin-4-yl-propoxy)-quinazolin-6-yl]-2-fluoro-acrylamide], the IC50 in assay [1] came to 2700 nM.

On to `COc1cc2ncnc(Nc3ccc(F)c(Cl)c3)c2cc1NC(=O)/C(F)=C\CN1CCOCC1` [Compound 22-2, (E)-N-(4-((3-chloro-4-fluorophenyl)amino)-7-methoxyquinazolin-6-yl)-2-fluoro-4-morpholinobut-2-enamide], for which the IC50 in assay [1] was 2400 nM; in assay [2], 0.3 nM; in assay [3], 2900 nM.

As for `C=C(F)C(=O)Nc1cc2c(Nc3cccc(Cl)c3F)ncnc2cc1OCCCN1CCOCC1` [Compound 26, N-[4-(3-chloro-2-fluoro-phenylamino)-7-(3-morpholin-4-yl-propoxy)-quinazolin-6-yl]-2-fluoro-acrylamide], the IC50 worked out at 5400 nM in assay [1], 0.35 nM in assay [2] and 4500 nM in assay [3].

With `C=C(F)C(=O)Nc1cc2c(Nc3ccc(F)c(Cl)c3)ncnc2cc1OC` [Compound 56, N-[4-(3-chloro-4-fluoro-phenylamino)-7-methoxy-quinazolin-6-yl]-2-fluoro-acrylamide], the IC50 in assay [1] is 510 nM; in assay [2] it was 0.22 nM; in assay [3] it was 2800 nM.

For the compound `CN(C)C/C=C(/F)C(=O)Nc1cc2c(Nc3ccc(F)c(Cl)c3)ncnc2cc1O[C@H]1CCOC1` [Compound 21-2, (S,E)-N-(4-((3-chloro-4-fluorophenyl)amino)-7-((tetrahydrofuran-3-yl)oxy)quinazolin-6-yl)-4-(dimethylamino)-2-fluorobut-2-enamide], the IC50 in assay [1] came to 1500 nM; in assay [2], 0.31 nM; in assay [3], 3100 nM.

For the compound `C=C(Cl)C(=O)Nc1cc2c(Nc3ccc(F)c(Cl)c3)ncnc2cc1OCCCN1CCOCC1` [Compound 35, N-[4-(3-chloro-4-fluoro-phenylamino)-7-(3-morpholin-4-yl-propoxy)-quinazolin-6-yl]-2-chloro-acrylamide], the results for the IC50 in assay [1], in assay [2] and in assay [3] were 8500 nM, 0.97 nM and more than 100000 nM, respectively.

As to `C=C(F)C(=O)Nc1cc2c(Nc3ccc(F)c(Cl)c3F)ncnc2cc1OCCCN1CCOCC1` [Compound 24, N-[4-(3-chloro-2,4-difluoro-phenylamino)-7-(3-morpholin-4-yl-propoxy)-quinazolin-6-yl]-2-fluoro-acrylamide], the IC50 in assay [1] came to 2200 nM; in assay [2] it was 0.19 nM; in assay [3], 1300 nM.

Consider `C=C(F)C(=O)Nc1cc2c(Nc3ccc(F)c(Cl)c3F)ncnc2cc1OCC1CC1` [Compound 48, N-[4-(3-chloro-2,4-difluoro-phenylamino)-7-cyclopropylmethoxy-quinazolin-6-yl]-2-fluoro-acrylamide], for which the values for the IC50 in assay [1], in assay [2] and in assay [3] were 1800 nM, 0.65 nM and 13000 nM, respectively.

Regarding `C=C(F)C(=O)Nc1cc2c(Nc3cccc(C(F)(F)F)c3)ncnc2cc1OC` [Compound 54, N-[7-methoxy-4-(3-trifluoromethyl-phenylamino)-quinazolin-6-yl]-2-fluoro-acrylamide], the IC50 is 13000 nM in assay [1], 1.1 nM in assay [2] and 3800 nM in assay [3].

For `C=C(F)C(=O)Nc1cc2c(Nc3ccc(F)c(Cl)c3)ncnc2cc1OCCCN1CCN(C)CC1` [Compound 44, N-{4-(3-chloro-4-fluoro-phenylamino)-7-[3-(4-methyl-piperazin-1-yl)-propoxy]-quinazolin-6-yl}-2-fluoro-acrylamide], the figures for the IC50 in assay [1], in assay [2] and in assay [3] were 3700 nM, 0.29 nM and 530 nM, respectively.

Consider `C=C(F)C(=O)Nc1cc2c(Nc3cccc(Br)c3)ncnc2cc1OCCCN1CCOCC1` [Compound 28, N-[4-(3-bromo-phenylamino)-7-(3-morpholin-4-yl-propoxy)-quinazolin-6-yl]-2-fluoro-acrylamide], for which the IC50 in assay [1] is 1400 nM; in assay [2] it was 0.32 nM; in assay [3], 29000 nM.

Turning to `C=C(F)C(=O)Nc1cc2c(Nc3ccc(F)c(Cl)c3)ncnc2cc1OCCCN(C)C` [Compound 42, N-[4-(3-chloro-4-fluoro-phenylamino)-7-(3-dimethylamino-propoxy)-quinazolin-6-yl]-2-fluoro-acrylamide], the IC50 in assay [1] is 2400 nM; in assay [2] it was 0.55 nM; in assay [3] it was 530 nM.

On to `C=C(F)C(=O)Nc1cc2c(Nc3ccc(F)c(Cl)c3F)ncnc2cc1O[C@H]1CCN(C)C1` [Compound 51, (S)-N-[4-(3-chloro-2,4-difluoro-phenylamino)-7-(1-methyl-pyrrolidin-3-yloxy)-quinazolin-6-yl]-2-fluoro-acrylamide], for which the IC50 came to 7300 nM in assay [1], 4.9 nM in assay [2] and 20000 nM in assay [3].

For `C=C(F)C(=O)Nc1cc2c(Nc3ccc(F)c(Cl)c3)ncnc2cc1OCCCN1CCCCC1` [Compound 40, N-[4-(3-chloro-4-fluoro-phenylamino)-7-(3-piperidin-l-yl-propoxy)-quinazolin-6-yl]-2-fluoro-acrylamide], the IC50 in assay [1] turned out to be 3400 nM; in assay [2], 1 nM; in assay [3] it was 1300 nM.

For the compound `COc1cc2ncnc(Nc3ccc(F)c(Cl)c3)c2cc1NC(=O)/C(F)=C/CN1CCCCC1` [Compound 8-1, (Z)—N-(4-((3-chloro-4-fluorophenyl)amino)-7-methoxyquinazolin-6-yl)-2-fluoro-4-(piperidin-1-yl)but-2-enamide], inhibition in assay [1] was half-maximal at 1000 nM (IC50).

For `C=C(F)C(=O)Nc1cc2c(Nc3cccc(Br)c3)ncnc2cc1OCC` [Compound 53, N-[4-(3-bromo-phenylamino)-7-ethoxy-quinazolin-6-yl]-2-fluoro-acrylamide], the IC50 in assay [1] amounted to 1000 nM; in assay [2] it was 0.36 nM; in assay [3], 36000 nM.

On to `C=C(F)C(=O)Nc1cc2c(Nc3ccc(OCC4CC4)c(Cl)c3)ncnc2cc1OCCCN1CCOCC1` [Compound 61], for which the IC50 in assay [1] stood at 1000 nM; in assay [2], 4.5 nM; in assay [3], 800 nM.

For `O=C(Nc1cc2c(Nc3ccc(F)c(Cl)c3)ncnc2cc1O[C@H]1CCOC1)/C(F)=C/CN1CCOCC1` [Compound 20-1, (S,Z)-N-(4-((3-chloro-4-fluorophenyl)amino)-7-((tetrahydrofuran-3-yl)oxy)quinazolin-6-yl)-2-fluoro-4-morpholinobut-2-enamide], the figures for the IC50 in assay [1] and in assay [3] were 4300 nM and 12000 nM, respectively.

Consider `C=C(Cl)C(=O)Nc1cc2c(Nc3ccc(F)c(Cl)c3)ncnc2cc1OCCCN1CCOCC1` [Compound 41, N-[4-(3-chloro-4-fluoro-phenylamino)-7-(3-morpholin-4-yl-propoxy)-quinazolin-6-yl]-2-chloro-acrylamide], for which the IC50 in assay [2] was found to be 0.37 nM.

Consider `CCOc1cc2ncnc(Nc3ccc(OCc4ccccn4)c(Cl)c3)c2cc1NC(=O)/C(F)=C\CN(C)C` [Compound 19-2, (E)-N-(4-((3-chloro-4-(pyridin-2-ylmethoxy)phenyl)amino)-7-ethoxyquinazolin-6-yl)-4-(dimethylamino)-2-fluorobut-2-enamide], for which the half-maximal inhibitory concentration (IC50) in assay [1] turned out to be 1100 nM; in assay [2] it was 0.89 nM.

With `CCOc1cc2ncnc(Nc3ccc(OCc4ccccn4)c(Cl)c3)c2cc1NC(=O)/C(F)=C/CN(C)C` [Compound 19-1, (Z)-N-(4-((3-chloro-4-(pyridin-2-ylmethoxy)phenyl)amino)-7-ethoxyquinazolin-6-yl)-4-(dimethylamino)-2-fluorobut-2-enamide], the IC50 in assay [2] was determined as 0.57 nM.

In turn, `COc1cc2ncnc(Nc3ccc(F)c(Cl)c3)c2cc1NC(=O)/C(F)=C\CN1CCCCC1` [Compound 8-2, (E)-N-(4-((3-chloro-4-fluorophenyl)amino)-7-methoxyquinazolin-6-yl)-2-fluoro-4-(piperidin-1-yl)but-2-enamide] gave an IC50 in assay [3] of 2100 nM.

For the compound `C=C(F)C(=O)Nc1cc2c(Nc3ccc(F)c(Cl)c3)ncnc2cc1OC1CCN(C)CC1` [Compound 49, N-[4-(3-chloro-4-fluoro-phenylamino)-7-(1-methyl-piperidin-4-yloxy)-quinazolin-6-yl]-2-fluoro-acrylamide], the figures for the half-maximal inhibitory concentration (IC50) in assay [1] and in assay [3] were 5600 nM and 8600 nM, respectively.

In the case of `O=C(Nc1cc2c(Nc3ccc(F)c(Cl)c3)ncnc2cc1O[C@H]1CCOC1)/C(F)=C\CN1CCOCC1` [Compound 20-2, (S,E)-N-(4-((3-chloro-4-fluorophenyl)amino)-7-((tetrahydrofuran-3-yl)oxy)quinazolin-6-yl)-2-fluoro-4-morpholinobut-2-enamide], the IC50 was 2300 nM in assay [1] and more than 100000 nM in assay [3].

In general, IC50 refers to the concentration that gives 50% inhibition. Low readings indicate inhibition by little substance, high ones a need for much substance.
